Results reported in patent publication US10322118B2, “Compounds and methods for inhibiting Cif virulence factor” (priority 2012, dated 2019).
“And” between values parts separate entries of the source, which are not always exact repeats. Equal values may be shown once. Where a name gives a salt, the structure may show the parent alone. Read-outs that look alike come from different tables or passages of the source.

Experiments:
[1] = target: T1, Cif (Pseudomonas aeruginosa (strain UCBPP-PA14), UniProt A0A0H2ZD27); assay: Fluorescent-based Cif inhibitory assay (CMNGC)
Text: Cyano (6-methoxynaphthalen-2-yl) methyl glycidyl carbonate (CMNGC) was used as a fluorescent reporter substrate.
Reported IC50 values are the average of triplicates with at least two data points above and at least two below the IC50.

[2] = target: T1, Cif; assay: Screen of soluble epoxide hydrolase inhibitors for Cif inhibition; assay type: biochemical
Experimental: To identify additional inhibitors of the Cif enzyme, further screening assays were conducted.

[3] = target: T1, Cif; assay: Radioactivity epoxide hydrolase assay with tritium-labeled cis-stilbene oxide (CSO); assay type: biochemical; set-up: concentration or dose not given beside the values; details: for Inhibition (%): radioactivity assay, CSO substrate, initial screen and retest (Table 8)
[4] = target: T1, Cif; assay: Primary high throughput screen with fluorogenic substrate CMNGC; assay type: biochemical;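 further: fluorescence of 200 µL reactions in 96-well plates read on a plate reader, inhibitor at tenfold molar excess over Cif enzyme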
Experimental: All high throughput screening assays were performed using 96-well plates, a 200 μL reaction volume, and a fluorescent plate reader. […] The fluorescent signal was measured after allowing the enzyme reaction to proceed for 60 minutes.
A library of 1600 FDA-approved compounds was screened for Cif inhibitory activity.
The screen was performed with only a 10-fold stoichiometric excess of inhibitor over Cif enzyme.

[5] = target: T1, Cif; assay: Secondary screen (sextuplicate) with fluorogenic substrate CMNGC; assay type: biochemical;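 further: purified enzyme assay in 96-well plates, 200 µL volume, fluorescence recorded each minute across a 60 min reaction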
Experimental: All high throughput screening assays were performed using 96-well plates, a 200 μL reaction volume, and a fluorescent plate reader. […] The fluorescent signal was measured after allowing the enzyme reaction to proceed for 60 minutes. The secondary screen was performed using the same conditions as the primary screen, except that fluorescent readings were taken every minute for the 60-minute reaction.
Subsequently, the filtered primary hits were retested to validate the observed inhibitory effect.

[6] = Table 18 (biphenyl R series), CMNGC, average of triplicates
[7] = Table 17 (R6-R9 series), CMNGC, average of triplicates
[8] = primary screen, test compounds at 10 μM, 1 μM Cif, 25 μM CMNGC, 60 minutes

T1 sequence (A0A0H2ZD27 25-319 limits assumed): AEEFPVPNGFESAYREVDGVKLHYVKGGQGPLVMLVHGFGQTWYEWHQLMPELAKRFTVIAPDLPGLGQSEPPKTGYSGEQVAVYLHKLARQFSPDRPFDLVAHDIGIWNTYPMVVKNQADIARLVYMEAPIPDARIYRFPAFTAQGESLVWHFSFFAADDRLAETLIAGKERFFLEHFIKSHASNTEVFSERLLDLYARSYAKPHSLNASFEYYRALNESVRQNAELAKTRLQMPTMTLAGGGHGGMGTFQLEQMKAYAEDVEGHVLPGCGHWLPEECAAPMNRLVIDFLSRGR

Work on CCC(=O)Nc1cc(Cl)c(Oc2ccc(O)c(-c3ccc(C(C)=O)cc3)c2)c(Cl)c1 [Compound 8k] yielded an IC50 [1, 6] of 0.35 µM.

CCOC(=O)CC(=O)Nc1cc(Cl)c(Oc2ccc(O)c(C(C)C)c2)c(Cl)c1 [Compound 1i] was tested, and the IC50 [1, 7] was 3.8 µM.

With CCC(=O)Nc1cc(Cl)c(Oc2ccc(O)c(-c3ccc(S(N)(=O)=O)cc3)c2)c(Cl)c1 [Compound 8l] the IC50 [1, 6] was 2 µM.

For O=C(NC(=O)c1c(F)cccc1F)Nc1cc(Cl)cc(Cl)c1 [Entry 4], the inhibition at 10 µM [2] was 50%.

Work on CCC(=O)Nc1cc(Cl)c(Oc2ccc(O)c(-c3ccc(C#N)cc3)c2)c(Cl)c1 [Compound 8e] yielded an IC50 [1, 6] of 11.9 µM.

In the case of O=C(Nc1ccc(OC(F)(F)F)cc1)NC1CCC(Oc2ccc(C(=O)O)cc2)CC1 (stereo not shown) [Entry 15], the “Inhibition (%)” value [3] is reported as 17%.

In the case of CS(=O)(=O)N1CCC(NC(=O)Nc2ccc(OC(F)(F)F)cc2)CC1 [Entry 16], the “Inhibition (%)” value [3] is reported as 14%.

CCOC(=O)CC(=O)Nc1cc(Cl)c(Oc2ccc(O)cc2Br)c(Cl)c1 [Compound 1q] gave an IC50 [1, 7] of 29.3 µM.

In the case of CN(C(=O)NC(=O)c1c(F)cccc1F)c1ccc(Cl)cc1 [Entry 7], the inhibition at 10 µM [2] is reported as 40%.

O=C(NC1CCC(Oc2ccc(C(=O)O)cc2)CC1)NC12CC3CC(CC(C3)C1)C2 (stereo not shown) [Entry 12] was tested, and the “Inhibition (%)” value [3] was 14%.

For CC(=O)N1CCC(NC(=O)NC2CCCCCC2)CC1 [Entry 14], the “Inhibition (%)” value [3] was 6%.

With CCOC(=O)CC(=O)Nc1cc(Br)c(Oc2cccc(C(C)C)c2)c(Br)c1 [Compound 1g] the “Cif inhibitory activity at 50 μM” value ([1]; 50 μM) was “fail to show inhibitory activity” and the IC50 [1, 7] was over 50 µM.

Molecule CCC(=O)Nc1cc(Cl)c(Oc2ccc(O)c(-c3ccc(C(=O)O)cc3)c2)c(Cl)c1 [Compound 8b] has an IC50 [1, 6] of 10.5 µM.

In the case of NC(Cc1ccc(Oc2ccc(O)c(I)c2)c(I)c1)C(=O)O (stereo not shown) [Entry 4], the IC50 [1] is reported as 80 ± 10 µM.

In the case of CCOC(=O)CC(=O)Nc1cc(Cl)c(Oc2ccc(O)c(Br)c2)c(Cl)c1 [Compound 1l], the IC50 [1, 7] is reported as 4.9 µM.

CCOC(=O)CC(=O)Nc1cc(Cl)c(Oc2ccc(O)c(C(F)(F)F)c2)c(Cl)c1 [Compound 1n] showed an IC50 [1, 7] of 3 µM.

In the case of CCC(=O)Nc1cc(Cl)c(Oc2ccc(O)c(-c3ccc(C(=O)NC)cc3)c2)c(Cl)c1 [Compound 8g], the IC50 [1, 6] is reported as 1.7 µM.

With O=C(Nc1ccc(Cl)c(Cl)c1)Nc1ccc(Cl)c(Cl)c1 [Entry 18, N,N′-di-(3,4-dichlorophenyl) urea] the “Inhibition (%)” value [3] was 25.5%, the “inhibition of Cif enzyme activity” value ([3]; secondary screen of radioactivity assay, P=0.004) was 25% and the “% I, Positive Control Inhibitor, Average” value ([4]; 10 μM DCPU positive control, average of 20 plates) was 20%. The “% I (percent of the total enzyme activity inhibited), Positive Control Inhibitor” value ([4]; 10 μM DCPU positive control, per plate of primary screen, listed as Positive Control Inhibitor) was 15.2% and 30.0%.

CCOC(=O)CC(=O)Nc1ccc(Oc2ccc(O)c(C(C)C)c2)c(Cl)c1 [Compound 1j] gave an IC50 [1, 7] of 11.6 µM.

In the case of COC(=O)c1ccc(NC(=O)NC23CC4CC(CC(C4)C2)C3)cc1O [Entry 13], the “Inhibition (%)” value [3] is reported as 18%.

CN(C)CCCN1c2ccccc2CCc2ccc(Cl)cc21 [Clomipramine hydrochloride] showed an inhibition at 10 µM [4, 8] of 51%, an inhibition at 10 µM ([5]; read-out: % Inhibition, Mean ± SD) of 5 ± 4% and an inhibition at 10 µM ([5]; read-out: % Inhibition, plate 1) of 0%. It also gave an inhibition at 10 µM ([5]; read-out: % Inhibition, plate 2) of 3%, an inhibition at 10 µM ([5]; read-out: % Inhibition, plate 3) of 9% and an inhibition at 10 µM ([5]; read-out: % Inhibition, plate 4) of 3%. It also gave an inhibition at 10 µM ([5]; read-out: % Inhibition, plate 5) of 9% and an inhibition at 10 µM ([5]; read-out: % Inhibition, plate 6) of 7%.

CC(=O)[C@H]1CC[C@H]2[C@@H]3CC=C4C[C@@H](OC(=O)CCC(=O)O)CC[C@]4(C)[C@H]3CC[C@]12C [Pregnenolone succinate] was tested, and the “% Inhibition” value [4, 8] was 34%, the “% Inhibition, Mean ± SD” value ([5]; secondary screen, 10 μM, mean of six plates) was 12 ± 4% and the “% Inhibition, plate 1” value ([5]; secondary screen, 10 μM, plate number 1) was 6%. For the same molecule, the “% Inhibition, plate 2” value ([5]; secondary screen, 10 μM, plate number 2) was 12%, the “% Inhibition, plate 3” value ([5]; secondary screen, 10 μM, plate number 3) was 8% and the “% Inhibition, plate 4” value ([5]; secondary screen, 10 μM, plate number 4) was 13%. For the same molecule, the “% Inhibition, plate 5” value ([5]; secondary screen, 10 μM, plate number 5) was 17% and the “% Inhibition, plate 6” value ([5]; secondary screen, 10 μM, plate number 6) was 15%.
